Assays:
[1] = system: control sera (pooled serum of ten healthy LUMC hospital workers; commercial negative donor pooled serum from the Dutch bloodbank); assay type: binding, human; parameters: Binding of Control serum LUMC to linear peptides / Binding of Control serum Blood-bank to linear peptides / Binding of Control serum LUMC to looped peptides / Binding of Control Serum Blood-Bank to Looped peptides / Binding of Control serum LUMC to linear peptides of the protein M of SARS-CoV Urbani / Binding of Control serum Blood-bank to linear peptides of the protein M of SARS-CoV Urbani / Binding of Control serum LUMC to looped peptides of the protein M of SARS-CoV Urbani / Binding of Control Serum Blood-Bank to Looped peptides of the protein M of SARS-CoV Urbani: unit not given here
[2] = system: rabbit serum obtained by immunizing a rabbit with the SARS-CoV strain Frankfurt 1; assay type: binding; parameters: Binding of a rabbit serum to linear peptides / Binding of a rabbit serum to looped peptides / Rabbit serum linear peptides / Rabbit serum looped peptides / Binding of a rabbit serum to linear peptides of protein N of SARS-CoV Urbani (Rabbit serum linear peptides) / Binding of a rabbit serum to looped/cyclic peptides of protein N of SARS-CoV Urbani (Rabbit serum looped peptides): unit not given here
[3] = system: antibodies in sera from SARS patients (sera 1a, 1b, 2, 6, 37, 62, London, SARS-yellow, SARS-green); assay type: binding, human; parameters: Binding of serum 6 to linear peptides of protein X1 of SARS-CoV Urbani / Binding of serum 37 to linear peptides of protein X1 of SARS-CoV Urbani / Binding of serum 6 to looped/cyclic peptide (PEPSCAN-ELISA) / Binding of serum 37 to looped/cyclic peptide (PEPSCAN-ELISA) / Binding of serum 37 to looped/cyclic peptides of protein X1 of SARS-CoV Urbani / Binding of serum 6 to linear peptides of protein X2 / Binding of serum 37 to linear peptides of protein X2 / Binding of serum 37 to looped/cyclic peptides of protein X2 of SARS-CoV Urbani / Binding of serum 6 to linear peptides of protein M of SARS-CoV Urbani / Binding of serum 37 to linear peptides of protein M of SARS-CoV Urbani / Binding of serum 6 to looped/cyclic peptides of protein M of SARS-CoV Urbani / Binding of serum 37 to looped/cyclic peptides of protein M of SARS-CoV Urbani / Binding of serum 6 to linear peptides of protein X3 of SARS-CoV Urbani / Binding of serum 37 to linear peptides of protein X3 of SARS-CoV Urbani / Binding of serum 37 to looped/cyclic peptides of protein X3 of SARS-CoV Urbani / Binding of serum 6 to linear peptides of protein X4 of SARS-CoV Urbani / Binding of serum 37 to linear peptides of protein X4 of SARS-CoV Urbani / Binding of serum 37 to looped/cyclic peptides of protein X4 of SARS-CoV Urbani / Binding of serum 6 to linear peptides of protein X5 of SARS-CoV Urbani / Binding of serum 37 to linear peptides of protein X5 of SARS-CoV Urbani / Binding of serum 37 to looped/cyclic peptides of protein X5 of SARS-CoV Urbani / Binding of serum 6 to linear peptides of protein N of SARS-CoV Urbani / Binding of serum 37 to linear peptides of protein N of SARS-CoV Urbani / Binding of serum 6 to linear peptide (PEPSCAN-ELISA) / Binding of serum 1a to looped/cyclic peptides of protein N of SARS-CoV Urbani / Binding of serum 1b to looped/cyclic peptides of protein N of SARS-CoV Urbani / Binding of serum 2 to looped/cyclic peptides of protein N of SARS-CoV Urbani / Binding of serum 6 to looped/cyclic peptides of protein N of SARS-CoV Urbani / Binding of serum 37 to looped/cyclic peptides of protein N of SARS-CoV Urbani / Binding of serum 62 to looped/cyclic peptides of protein N of SARS-CoV Urbani / Binding of serum London to looped/cyclic peptides of protein N of SARS-CoV Urbani / Binding of serum SARS-green to looped/cyclic peptides of protein N of SARS-CoV Urbani: unit not given here

FLYIIKLVFLWLLWP
Binding of Control Serum Blood-Bank to Looped peptides of the protein M of SARS-CoV Urbani [1]: 0.8
Binding of Control serum Blood-bank to linear peptides of the protein M of SARS-CoV Urbani [1]: 0.8
Binding of Control serum LUMC to linear peptides of the protein M of SARS-CoV Urbani [1]: 0.4
Binding of Control serum LUMC to looped peptides of the protein M of SARS-CoV Urbani [1]: 0.9
Rabbit serum linear peptides [2]: 0.4
Rabbit serum looped peptides [2]: 0.4
Binding of serum 1a to linear peptides of protein M of SARS-CoV Urbani [3]: 0.8
Binding of serum 1b to linear peptides of protein M of SARS-CoV Urbani [3]: 0.5
Binding of serum 2 to linear peptides of protein M of SARS-CoV Urbani [3]: 1.0
Binding of serum 6 to linear peptides of protein M of SARS-CoV Urbani [3]: 0.3
Binding of serum 37 to linear peptides of protein M of SARS-CoV Urbani [3]: 0.8
Binding of serum 62 to linear peptides of protein M of SARS-CoV Urbani [3]: 0.9
Binding of serum London to linear peptides of protein M of SARS-CoV Urbani [3]: 0.3
Binding of serum SARS-green to linear peptides of protein M of SARS-CoV Urbani [3]: 0.3
Binding of serum SARS-yellow to linear peptides of protein M of SARS-CoV Urbani [3]: 0.1
Recognition of the peptide by sera of SARS-CoV infected individuals, and form (linear, looped/cyclic) in which it is recognized [3]: recognized in looped/cyclic form

PLQASLPFGWLVIGV
Binding of Control Serum Blood-Bank to Looped peptides [1]: 0.7
Binding of Control serum Blood-bank to linear peptides [1]: 0.8
Binding of Control serum LUMC to linear peptides [1]: 0.9
Binding of Control serum LUMC to looped peptides [1]: 0.5
Binding of a rabbit serum to linear peptides [2]: 0.1
Binding of a rabbit serum to looped peptides [2]: 0.4
Binding of serum 1a to linear peptides of protein X1 of SARS-CoV Urbani [3]: 0.8
Binding of serum 1a to looped/cyclic peptide (PEPSCAN-ELISA) [3]: 0.5
Binding of serum 1b to linear peptides of protein X1 of SARS-CoV Urbani [3]: 0.5
Binding of serum 1b to looped/cyclic peptide (PEPSCAN-ELISA) [3]: 0.3
Binding of serum 2 to linear peptides of protein X1 of SARS-CoV Urbani [3]: 0.5
Binding of serum 2 to looped/cyclic peptide (PEPSCAN-ELISA) [3]: 0.4
Binding of serum 6 to linear peptides of protein X1 of SARS-CoV Urbani [3]: 0.5
Binding of serum 6 to looped/cyclic peptide (PEPSCAN-ELISA) [3]: 0.4
Binding of serum 37 to linear peptides of protein X1 of SARS-CoV Urbani [3]: 0.7
Binding of serum 37 to looped/cyclic peptide (PEPSCAN-ELISA) [3]: 0.5
Binding of serum 62 to linear peptides of protein X1 of SARS-CoV Urbani [3]: 0.7
Binding of serum 62 to looped/cyclic peptide (PEPSCAN-ELISA) [3]: 0.7
Binding of serum London to linear peptides of protein X1 of SARS-CoV Urbani [3]: 0.3
Binding of serum London to looped/cyclic peptide (PEPSCAN-ELISA) [3]: 0.2
Binding of serum SARS-green to linear peptides of protein X1 of SARS-CoV Urbani [3]: 0.4
Binding of serum SARS-green to looped/cyclic peptide (PEPSCAN-ELISA) [3]: 0.3
Binding of serum SARS-yellow to linear peptides of protein X1 of SARS-CoV Urbani [3]: 0.6
Binding of serum SARS-yellow to looped/cyclic peptide (PEPSCAN-ELISA) [3]: 0.4

VFLWLLWPVTLACFV
Binding of Control Serum Blood-Bank to Looped peptides of the protein M of SARS-CoV Urbani [1]: 0.8
Binding of Control serum Blood-bank to linear peptides of the protein M of SARS-CoV Urbani [1]: 0.6
Binding of Control serum LUMC to linear peptides of the protein M of SARS-CoV Urbani [1]: 0.6
Binding of Control serum LUMC to looped peptides of the protein M of SARS-CoV Urbani [1]: 0.8
Rabbit serum linear peptides [2]: 0.3
Rabbit serum looped peptides [2]: 0.3
Binding of serum 1a to linear peptides of protein M of SARS-CoV Urbani [3]: 0.8
Binding of serum 1a to looped/cyclic peptides of protein M of SARS-CoV Urbani [3]: 0.7
Binding of serum 1b to linear peptides of protein M of SARS-CoV Urbani [3]: 0.6
Binding of serum 1b to looped/cyclic peptides of protein M of SARS-CoV Urbani [3]: 0.0
Binding of serum 2 to linear peptides of protein M of SARS-CoV Urbani [3]: 0.6
Binding of serum 2 to looped/cyclic peptides of protein M of SARS-CoV Urbani [3]: 0.7
Binding of serum 6 to linear peptides of protein M of SARS-CoV Urbani [3]: 0.4
Binding of serum 6 to looped/cyclic peptides of protein M of SARS-CoV Urbani [3]: 0.5
Binding of serum 37 to linear peptides of protein M of SARS-CoV Urbani [3]: 0.5
Binding of serum 37 to looped/cyclic peptides of protein M of SARS-CoV Urbani [3]: 0.7
Binding of serum 62 to linear peptides of protein M of SARS-CoV Urbani [3]: 0.5
Binding of serum 62 to looped/cyclic peptides of protein M of SARS-CoV Urbani [3]: 0.7
Binding of serum London to linear peptides of protein M of SARS-CoV Urbani [3]: 0.5
Binding of serum London to looped/cyclic peptides of protein M of SARS-CoV Urbani [3]: 0.2
Binding of serum SARS-green to linear peptides of protein M of SARS-CoV Urbani [3]: 0.6
Binding of serum SARS-green to looped/cyclic peptides of protein M of SARS-CoV Urbani [3]: 0.3
Binding of serum SARS-yellow to linear peptides of protein M of SARS-CoV Urbani [3]: 0.3
Binding of serum SARS-yellow to looped/cyclic peptides of protein M of SARS-CoV Urbani [3]: 0.8

ESELVIGAVIIRGHL
Binding of Control Serum Blood-Bank to Looped peptides of the protein M of SARS-CoV Urbani [1]: 0.7
Binding of Control serum Blood-bank to linear peptides of the protein M of SARS-CoV Urbani [1]: 0.6
Binding of Control serum LUMC to linear peptides of the protein M of SARS-CoV Urbani [1]: 0.4
Binding of Control serum LUMC to looped peptides of the protein M of SARS-CoV Urbani [1]: 0.5
Rabbit serum linear peptides [2]: 0.4
Rabbit serum looped peptides [2]: 0.1
Binding of serum 1a to linear peptides of protein M of SARS-CoV Urbani [3]: 0.8
Binding of serum 1a to looped/cyclic peptides of protein M of SARS-CoV Urbani [3]: 0.6
Binding of serum 1b to linear peptides of protein M of SARS-CoV Urbani [3]: 0.6
Binding of serum 1b to looped/cyclic peptides of protein M of SARS-CoV Urbani [3]: 0.5
Binding of serum 2 to linear peptides of protein M of SARS-CoV Urbani [3]: 0.8
Binding of serum 2 to looped/cyclic peptides of protein M of SARS-CoV Urbani [3]: 0.6
Binding of serum 6 to linear peptides of protein M of SARS-CoV Urbani [3]: 0.3
Binding of serum 6 to looped/cyclic peptides of protein M of SARS-CoV Urbani [3]: 0.5
Binding of serum 37 to linear peptides of protein M of SARS-CoV Urbani [3]: 0.9
Binding of serum 37 to looped/cyclic peptides of protein M of SARS-CoV Urbani [3]: 0.5
Binding of serum 62 to linear peptides of protein M of SARS-CoV Urbani [3]: 0.8
Binding of serum 62 to looped/cyclic peptides of protein M of SARS-CoV Urbani [3]: 0.5
Binding of serum London to linear peptides of protein M of SARS-CoV Urbani [3]: 0.3
Binding of serum London to looped/cyclic peptides of protein M of SARS-CoV Urbani [3]: 0.2
Binding of serum SARS-green to linear peptides of protein M of SARS-CoV Urbani [3]: 0.3
Binding of serum SARS-green to looped/cyclic peptides of protein M of SARS-CoV Urbani [3]: 0.2
Binding of serum SARS-yellow to linear peptides of protein M of SARS-CoV Urbani [3]: 0.1
Binding of serum SARS-yellow to looped/cyclic peptides of protein M of SARS-CoV Urbani [3]: 0.4

RVGTDSGFAAYNRYR
Binding of Control Serum Blood-Bank to Looped peptides of the protein M of SARS-CoV Urbani [1]: 0.5
Binding of Control serum Blood-bank to linear peptides of the protein M of SARS-CoV Urbani [1]: 0.7
Binding of Control serum LUMC to linear peptides of the protein M of SARS-CoV Urbani [1]: 0.4
Binding of Control serum LUMC to looped peptides of the protein M of SARS-CoV Urbani [1]: 0.6
Rabbit serum linear peptides [2]: 0.0
Rabbit serum looped peptides [2]: 0.3
Binding of serum 1a to linear peptides of protein M of SARS-CoV Urbani [3]: 0.7
Binding of serum 1a to looped/cyclic peptides of protein M of SARS-CoV Urbani [3]: 0.8
Binding of serum 1b to linear peptides of protein M of SARS-CoV Urbani [3]: 0.1
Binding of serum 1b to looped/cyclic peptides of protein M of SARS-CoV Urbani [3]: 0.5
Binding of serum 2 to linear peptides of protein M of SARS-CoV Urbani [3]: 0.5
Binding of serum 2 to looped/cyclic peptides of protein M of SARS-CoV Urbani [3]: 0.6
Binding of serum 6 to linear peptides of protein M of SARS-CoV Urbani [3]: 0.5
Binding of serum 6 to looped/cyclic peptides of protein M of SARS-CoV Urbani [3]: 1.4
Binding of serum 37 to linear peptides of protein M of SARS-CoV Urbani [3]: 0.6
Binding of serum 37 to looped/cyclic peptides of protein M of SARS-CoV Urbani [3]: 0.7
Binding of serum 62 to linear peptides of protein M of SARS-CoV Urbani [3]: 0.2
Binding of serum 62 to looped/cyclic peptides of protein M of SARS-CoV Urbani [3]: 0.6
Binding of serum London to linear peptides of protein M of SARS-CoV Urbani [3]: 0.3
Binding of serum London to looped/cyclic peptides of protein M of SARS-CoV Urbani [3]: 0.4
Binding of serum SARS-green to linear peptides of protein M of SARS-CoV Urbani [3]: 0.5
Binding of serum SARS-green to looped/cyclic peptides of protein M of SARS-CoV Urbani [3]: 0.3
Binding of serum SARS-yellow to linear peptides of protein M of SARS-CoV Urbani [3]: 0.3
Binding of serum SARS-yellow to looped/cyclic peptides of protein M of SARS-CoV Urbani [3]: 0.5

Reference: patent US20070128217A1 (priority 2003, published 2007)
